Like-named read-outs stand apart in the source and are kept apart here.
Legend:
Format in all cases: in vivo
[1] = test system: Glycine max (GLXMA); assay: Post-emergence crop plant compatibility, GLXMA; conditions: post-emergence, effect in comparison to untreated controls
Summary of the method: (§1)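 Greenhouse crops in sandy loam sprayed post-emergence at the one-leaf stage, 2–3 weeks after sowing, with WP or EC formulations in water plus 0.5% additive at 600 l/ha. Damage rated visually about 3 weeks later versus untreated controls (0% = like control, 100% = dead); suffixes a–c denote different doses.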

[2] = test system: Triticum aestivum (TRZAS); conditions: crop plant compatibility, effect vs untreated controls
Summary of the method: as §1

[3] = test system: Zea mays (ZEAMX); conditions: for Post-emergence action against ZEAMX in % (crop plant compatibility): 20 g/ha, effect in comparison to untreated controls; for Post-emergence action against ZEAMX in %: crop plant compatibility, effect vs untreated controls
Summary of the method: as §1

[4] = test system: Oryza sativa (ORYSA); conditions: crop plant compatibility
Summary of the method: as §1

[5] = test system: Triticum aestivum (TRZAS); conditions: pre-emergence, crop plant compatibility, in comparison to untreated controls
Summary of the method: (§2)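 Scoring: visual, % of untreated control, about 3 weeks after a pre-emergence application to the soil surface. Application used WP or EC formulations diluted in water with 0.5% additive at 600 l/ha; dosage levels are marked by suffixes a, b and c.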

[6] = test system: Zea mays (ZEAMX); conditions: pre-emergence, crop plant compatibility, in comparison to untreated controls
Summary of the method: as §2

[7] = test system: Brassica napus (BRSNW); conditions: crop plant compatibility, in comparison to untreated controls
Summary of the method: as §2

[8] = test system: Brassica napus (BRSNW); assay: Post-emergence crop plant compatibility, BRSNW; conditions: effect in comparison to untreated controls
Experimental: Seeds of monocotyledonous and dicotyledonous weeds and crop plants are placed in sandy loam in plastic or organic planting pots, covered with soil and cultivated in a greenhouse under controlled growth conditions. 2 to 3 weeks after sowing, the test plants are treated at the one-leaf stage. The compounds of the invention, formulated in the form of wettable powders (WP) or as emulsion concentrates (EC), are then sprayed onto the green parts of the plants as aqueous suspension or emulsion with addition of 0.5% additive at a water application rate of 600 l/ha (converted). After the test plants have been kept in the greenhouse under optimum growth conditions for about 3 weeks, the activity of the preparations is rated visually in comparison to untreated controls. For example, 100% activity=the plants have died, 0% activity=like control plants.
The observed effects on selected crop plants are reported here in comparison to the untreated controls (values in %). The appendices “a”, “b” and “c” give differentiation by dosage used with otherwise the same crop plants tested.

[9] = test system: Oryza sativa (ORYSA); conditions: pre-emergence, crop plant compatibility, in comparison to untreated controls
Summary of the method: as §2

[10] = test system: Glycine max (GLXMA); conditions: pre-emergence, crop plant compatibility, in comparison to untreated controls
Summary of the method: as §2

[11] = test system: Alopecurus myosuroides (ALOMY); assay: Pre-emergence herbicidal action against ALOMY; conditions: 320 g/ha; scored visually after about 3 weeks; 100% = plants have died
Summary of the method: (§3)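 Greenhouse pot trial: seeds sown, soil-covered, sprayed before emergence with compound in water (0.5% additive; 600 l/ha; ≤320 g/ha). Scoring visual, ~3 weeks, 0–100% scale vs untreated.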

[12] = test system: Setaria viridis (SETVI); assay: Pre-emergence herbicidal action against SETVI; conditions: dosage 320 g/ha
Summary of the method: as §3

[13] = test system: Lolium rigidum (LOLRI); assay: Pre-emergence herbicidal action against LOLRI; conditions: dosage 320 g/ha
Summary of the method: as §3

[14] = test system: Verconica persica (VERPE); assay: Pre-emergence herbicidal action against VERPE; conditions: dosage 320 g/ha
Summary of the method: as §3

[15] = test system: Amaranthus retroflexus (AMARE); assay: Post-emergence herbicidal action against AMARE; conditions: 80 g/ha, visual rating about 3 weeks after treatment vs untreated controls (100% = plants have died, 0% = like control plants)
Summary of the method: (§4)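 Doses of 320 g/ha or lower, suffixes a, b and c marking different dosages, were applied post-emergence at the one-leaf stage in 600 l/ha water with 0.5% additive. Damage was assessed visually after about 3 weeks in the greenhouse.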

[16] = test system: Viola tricolor (VIOTR); assay: Pre-emergence herbicidal action against VIOTR; conditions: 320 g/ha, Viola tricolor
Summary of the method: as §3

[17] = test system: Amaranthus retroflexus (AMARE); assay: Pre-emergence herbicidal action against AMARE; conditions: 320 g/ha, visual scoring after about 3 weeks vs untreated controls
Summary of the method: as §3

[18] = test system: Polygonum convolvulus (POLCO); assay: Pre-emergence herbicidal action against POLCO; conditions: dosage 320 g/ha
Summary of the method: as §3

[19] = test system: Viola tricolor (VIOTR); assay: Post-emergence herbicidal action against VIOTR; conditions: 320 g/ha
Summary of the method: as §4

[20] = test system: Digitaria sanguinalis (DIGSA); assay: Pre-emergence herbicidal action against DIGSA
Summary of the method: as §3

[21] = test system: Echinochloa crus-galli (ECHCG); assay: Post-emergence herbicidal action against ECHCG; conditions: dosage 320 g/ha
Summary of the method: as §4

[22] = test system: Verconica persica (VERPE); assay: Post-emergence herbicidal action against VERPE; conditions: 320 g/ha, VERPE
Summary of the method: as §4

[23] = test system: Setaria viridis (SETVI); assay: Post-emergence herbicidal action against SETVI; conditions: dosage 320 g/ha
Summary of the method: as §4

[24] = 20 g/ha, effect vs untreated controls
[25] = 80 g/ha, effect in comparison to untreated controls
[26] = 320 g/ha, effect in comparison to untreated controls

Row | Compound | Post-emergence action against GLXMA in % ([1]; 20 g/ha) [%] | Post-emergence action against GLXMA in % ([1]; 80 g/ha) [%] | Post-emergence action against TRZAS in % ([2]; 20 g/ha) [%] | Post-emergence action against TRZAS in % ([2]; 80 g/ha) [%] | Post-emergence action against ZEAMX in % (crop plant compatibility) [3] [%] | Post-emergence action against ZEAMX in % ([3]; 80 g/ha) [%] | Post-emergence action against ORYSA in % [4, 24] [%] | Post-emergence action against ORYSA in % [4, 25] [%] | Pre-emergence action against TRZAS in % ([5]; 80 g/ha) [%] | Pre-emergence action against TRZAS in % ([5]; 320 g/ha) [%] | Pre-emergence action against ZEAMX in % ([6]; 80 g/ha) [%] | Pre-emergence action against ZEAMX in % ([6]; 320 g/ha) [%] | Pre-emergence action against BRSNW in % ([7]; 80 g/ha) [%] | Pre-emergence action against BRSNW in % ([7]; 320 g/ha) [%] | Post-emergence action against BRSNW in % ([8]; 20 g/ha) [%] | Post-emergence action against BRSNW in % ([8]; 80 g/ha) [%] | Pre-emergence action against ORYSA in % ([9]; 80 g/ha) [%] | Pre-emergence action against ORYSA in % ([9]; 320 g/ha) [%] | Pre-emergence action against GLXMA in % ([10]; 80 g/ha) [%] | Pre-emergence action against GLXMA in % ([10]; 320 g/ha) [%] | also measured
1 | C[C@@H](Oc1nn(-c2ncccc2F)c(-c2ccc(F)nc2)c1Br)C(=O)O [Example I-50] | 0 | 10 | 10 | 10 | 0 | 0 | 10 | 10 | 10 | 10 | 0 | 0 | 0 | 20 | 10 | 20 | – | – | – | – | –
2 | CCOC(=O)COc1nn(-c2ncccc2F)c(-c2ccc(F)nc2)c1I [Example I-55] | 0 | 0 | 0 | 0 | 0 | 0 | 0 | 0 | 0 | 0 | 0 | 0 | 0 | 0 | 0 | 0 | 0 | 0 | 0 | 0 | –
3 | COC(=O)CNC(=O)COc1nn(-c2ccccn2)c(-c2ccc(F)nc2)c1C1CC1 [Example I-70] | – | – | 0 | 10 | 0 | 10 | 0 | 0 | 10 | – | 0 | 0 | 20 | – | 20 | – | 0 | 10 | 10 | – | Pre-emergence action against ALOMY [11]: 90%; Pre-emergence action against SETVI in % [12]: 90%; Pre-emergence action against LOLRI in % [13]: 90%; Pre-emergence action against VERPE in % [14]: 80%; Post-emergence action against AMARE in % [15]: 90%; Pre-emergence action against VIOTR in % [16]: 90%; Pre-emergence action against AMARE in % [17]: 90%
4 | COC(=O)C1CCCN(C(=O)COc2nn(-c3ccccn3)c(-c3ccc(F)nc3)c2Br)C1 (centres unmarked) [Example I-108] | 0 | 10 | 0 | 20 | 0 | 10 | 0 | 10 | 0 | 10 | 10 | 10 | 10 | 20 | 10 | – | 0 | 10 | 0 | 0 | –
5 | CCOC(=O)C(Oc1nn(-c2ccccn2)c(-c2ccc(F)nc2)c1Br)C(C)C (centres unmarked) [Example I-349] | – | 0 | – | – | – | – | – | 0 | 10 | – | 10 | 20 | – | – | – | 20 | – | – | 0 | 10 | Post-emergence action against ORYSA in % [4, 26]: 10%; Pre-emergence action against POLCO in % [18]: 80%; Post-emergence action against VIOTR in % [19]: 80%; Pre-emergence action against DIGSA in % ([20]; 80 g/ha, visual scoring after about 3 weeks vs untreated controls): 80%; Pre-emergence action against DIGSA in % ([20]; dosage 320 g/ha): 90%; Pre-emergence action against VIOTR in % [16]: 80%
6 | COC(=O)CNC(=O)COc1nn(-c2cccnc2C)c(-c2cncc(F)c2)c1Br [II-37] | 0 | – | 0 | 0 | 0 | 0 | 0 | 0 | – | – | – | – | – | – | 0 | – | – | – | – | – | Post-emergence action against TRZAS in % ([2]; 320 g/ha): 0%; Post-emergence action against ZEAMX in % ([3]; 320 g/ha): 0%; Post-emergence action against ORYSA in % [4, 26]: 0%; Post-emergence action against VIOTR in % [19]: 80%; Post-emergence action against ECHCG in % [21]: 80%; Post-emergence action against VERPE in % [22]: 90%; Post-emergence action against SETVI in % [23]: 80%
7 | O=C(COc1nn(-c2ccnc(Cl)c2)c(-c2ccc(F)nc2)c1Br)NS(=O)(=O)CC(F)(F)F [III-20] | 0 | 0 | 0 | 0 | 0 | – | 0 | 0 | 0 | 0 | 0 | 0 | 0 | – | 0 | – | 0 | 10 | – | 20 | –
8 | COC(=O)CN(C)C(=O)COc1nn(-c2ccnc(Cl)c2)c(-c2ccc(F)nc2)c1Br [III-21] | 0 | 0 | 0 | 0 | 0 | 0 | 0 | 20 | 20 | – | 0 | 20 | 20 | 20 | 0 | 0 | 0 | 0 | 0 | 0 | –
